Test results reported in patent US20230065740A1, “CYCLIN-DEPENDENT KINASE INHIBITORS” (SPV THERAPEUTICS INC., priority 2018, published 2023).

Assays:
CDK6-CYCLIND3 = molecular target: T1, CDK6-CYCLIND3 (Homo sapiens, UniProt Q00534); test: Microfluidic LabChip kinase inhibition assay, CDK6-CyclinD3; assay type: biochemical; settings: Table 2; 300 μM ATP, 2 nM enzyme; read-out: CDK6 IC50
T1 construct: purchased Carna

CDK4-CYCLIND1 = CDK4-CYCLIND1 (Homo sapiens, UniProt P11802); test: Microfluidic LabChip kinase inhibition assay, CDK4-CyclinD1; settings: CDK4 IC50 (μM), Table 2; 200 μM ATP, 1 nM enzyme
CDK4-CYCLIND1, sequence (P11802 whole entry): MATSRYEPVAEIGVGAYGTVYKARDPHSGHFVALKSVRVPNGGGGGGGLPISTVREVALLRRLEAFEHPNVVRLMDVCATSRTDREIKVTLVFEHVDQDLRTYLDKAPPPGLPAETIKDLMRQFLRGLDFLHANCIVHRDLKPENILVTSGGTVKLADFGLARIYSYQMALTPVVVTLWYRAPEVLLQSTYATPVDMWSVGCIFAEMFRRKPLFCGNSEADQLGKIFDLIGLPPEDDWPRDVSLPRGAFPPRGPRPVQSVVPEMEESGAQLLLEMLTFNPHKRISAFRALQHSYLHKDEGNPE
CDK4-CYCLIND1, sequence (P24385 whole entry partner): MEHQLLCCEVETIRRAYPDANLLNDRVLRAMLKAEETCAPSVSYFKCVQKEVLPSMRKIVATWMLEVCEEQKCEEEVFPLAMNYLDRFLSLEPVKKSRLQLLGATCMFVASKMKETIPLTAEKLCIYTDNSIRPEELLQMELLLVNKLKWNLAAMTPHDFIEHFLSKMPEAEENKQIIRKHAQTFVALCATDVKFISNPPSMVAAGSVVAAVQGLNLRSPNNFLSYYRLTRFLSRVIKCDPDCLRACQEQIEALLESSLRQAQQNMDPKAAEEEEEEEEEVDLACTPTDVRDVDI

T1 sequence (Q00534 whole entry): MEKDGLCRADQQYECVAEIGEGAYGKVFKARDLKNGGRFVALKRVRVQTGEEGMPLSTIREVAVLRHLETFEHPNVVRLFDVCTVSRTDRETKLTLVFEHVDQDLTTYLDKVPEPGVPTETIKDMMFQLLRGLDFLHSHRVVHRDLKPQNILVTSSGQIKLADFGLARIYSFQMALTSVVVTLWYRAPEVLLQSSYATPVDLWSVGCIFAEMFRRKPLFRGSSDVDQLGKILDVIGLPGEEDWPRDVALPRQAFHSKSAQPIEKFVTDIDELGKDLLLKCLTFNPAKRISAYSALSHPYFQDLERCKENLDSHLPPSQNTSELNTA
T1 sequence (P30281 whole entry partner): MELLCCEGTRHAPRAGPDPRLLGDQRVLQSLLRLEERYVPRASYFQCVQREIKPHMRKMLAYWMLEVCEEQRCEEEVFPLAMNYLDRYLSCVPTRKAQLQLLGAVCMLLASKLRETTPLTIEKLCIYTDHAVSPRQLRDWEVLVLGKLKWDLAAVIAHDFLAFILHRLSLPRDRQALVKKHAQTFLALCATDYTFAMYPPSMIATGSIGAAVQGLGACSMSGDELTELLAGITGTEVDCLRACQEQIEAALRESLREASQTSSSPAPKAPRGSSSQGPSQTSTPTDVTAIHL

SMILES | IC50 (CDK6-CYCLIND3) [nM] | IC50 (CDK4-CYCLIND1) [µM]
O=C1NCCC12Cc1cnc(Nc3ccc(N4CCNCC4)cc3F)nc1N2C1CCCC1 (stereo not drawn) [Compound C50, 7′-cyclopentyl-2′-((2-fluoro-4-(piperazin-1-yl)phenyl)amino)-5′,7′-dihydrospiro[pyrrolidine-3,6′-pyrrolo[2,3-d]pyrimidin]-2-one] | 4210 | 0.888
CN1CCN(c2ccc(Nc3ncc4c(n3)N(C3CCCC3)C3(CCNC3=O)C4)c(F)c2)CC1 (stereo not drawn) [Compound C51, 7′-cyclopentyl-2′-((2-fluoro-4-(4-methylpiperazin-1-yl)phenyl)amino)-5′,7′-dihydrospiro[pyrrolidine-3,6′-pyrrolo[2,3-d]pyrimidin]-2-one] | > 30000 | > 30
CC(C)N1CCN(c2ccc(Nc3ncc4c(n3)N(C3CCCC3)C3(CCNC3=O)C4)c(F)c2)CC1 (stereo not drawn) [Compound C52, 7′-cyclopentyl-2′-((2-fluoro-4-(4-isopropylpiperazin-1-yl)phenyl)amino)-5′,7′-dihydrospiro[pyrrolidine-3,6′-pyrrolo[2,3-d]pyrimidin]-2-one] | > 30000 | > 30
CC(C)N1CC=C(c2ccc(Nc3ncc4c(n3)N(C3CCCC3)C3(CCNC3=O)C4)nc2)CC1 (stereo not drawn) [Compound C57, 7′-cyclopentyl-2′-((1′-isopropyl-1′,2′,3′,6′-tetrahydro-[3,4′-bipyridin]-6-yl)amino)-5′,7′-dihydrospiro[pyrrolidine-3,6′-pyrrolo[2,3-d]pyrimidin]-2-one] | 952 | 0.387
O=C1NCCC12Cc1cnc(Nc3ccc(N4CCOCC4)c(F)c3)nc1N2C1CCCC1 (stereo not drawn) [Compound C58, 7′-cyclopentyl-2′-((3-fluoro-4-morpholinophenyl)amino)-5′,7′-dihydrospiro[pyrrolidine-3,6′-pyrrolo[2,3-d]pyrimidin]-2-one] | 932 | 0.222
CN(C)CCOc1ccc(Nc2ncc3c(n2)N(C2CCCC2)C2(CCNC2=O)C3)nc1 (stereo not drawn) [Compound C60, 7′-cyclopentyl-2′-((5-(2-(dimethylamino)ethoxy)pyridin-2-yl)amino)-5′,7′-dihydrospiro[pyrrolidine-3,6′-pyrrolo[2,3-d]pyrimidin]-2-one] | 3420 | 1.5
COc1cc(Nc2ncc3c(n2)N(C2CCCC2)C2(CCNC2=O)C3)ccc1N1CCN(C(C)C)CC1 (stereo not drawn) [Compound C62, 7′-cyclopentyl-2′-((4-(4-isopropylpiperazin-1-yl)-3-methoxyphenyl)amino)-5′,7′-dihydrospiro[pyrrolidine-3,6′-pyrrolo[2,3-d]pyrimidin]-2-one] | 1950 | 0.288
Cc1cc(Nc2ncc3c(n2)N(C2CCCC2)C2(CCNC2=O)C3)ccc1N1CCN(C(C)C)CC1 (stereo not drawn) [Compound C63, 7′-cyclopentyl-2′-((4-(4-isopropylpiperazin-1-yl)-3-methylphenyl)amino)-5′,7′-dihydrospiro[pyrrolidine-3,6′-pyrrolo[2,3-d]pyrimidin]-2-one] | 899 | 0.172
CN(C)C(=O)c1cc2cnc(Nc3ccc(N4CCN(C#N)CC4)cn3)nc2n1C1CCCC1 [Compound C64, 2-((5-(4-cyanopiperazin-1-yl)pyridin-2-yl)amino)-7-cyclopentyl-N,N-dimethyl-7H-pyrrolo[2,3-d]pyrimidine-6-carboxamide] | > 30000 | > 30
CN1C(=O)CC2(Cc3cnc(Nc4ccc(N5CCNCC5)cn4)nc3N2C2CCCC2)C1=O (stereo not drawn) [Compound C65, 7′-cyclopentyl-1-methyl-2′-((5-(piperazin-1-yl)pyridin-2-yl)amino)-5′,7′-dihydrospiro[pyrrolidine-3,6′-pyrrolo[2,3-d]pyrimidine]-2,5-dione] | 15400 | 12.3
CN1CCN(c2ccc(Nc3ncc4c(n3)N(C3CCCC3)C3(CC(=O)N(C)C3=O)C4)nc2)CC1 (stereo not drawn) [Compound C66, 7′-cyclopentyl-1-methyl-2′-((5-(4-methylpiperazin-1-yl)pyridin-2-yl)amino)-5′,7′-dihydrospiro[pyrrolidine-3,6′-pyrrolo[2,3-d]pyrimidine]-2,5-dione] | > 30000 | 29.8
CC(C)N1CCN(c2ccc(Nc3ncc4c(n3)N(C3CCCC3)C3(CC(=O)N(C)C3=O)C4)nc2)CC1 (stereo not drawn) [Compound C67, 7′-cyclopentyl-2′-((5-(4-isopropylpiperazin-1-yl)pyridin-2-yl)amino)-1-methyl-5′,7′-dihydrospiro[pyrrolidine-3,6′-pyrrolo[2,3-d]pyrimidine]-2,5-dione] | > 30000 | 26.7
CN1C(=O)CC2(Cc3cnc(Nc4ccc(N5CCNCC5)cc4)nc3N2C2CCCC2)C1=O (stereo not drawn) [Compound C68, 7′-cyclopentyl-1-methyl-2′-((4-(piperazin-1-yl)phenyl)amino)-5′,7′-dihydrospiro[pyrrolidine-3,6′-pyrrolo[2,3-d]pyrimidine]-2,5-dione] | 6680 | 2.49
CN1CCN(c2ccc(Nc3ncc4c(n3)N(C3CCCC3)C3(CC(=O)N(C)C3=O)C4)cc2)CC1 (stereo not drawn) [Compound C69, 7′-cyclopentyl-1-methyl-2′-((4-(4-methylpiperazin-1-yl)phenyl)amino)-5′,7′-dihydrospiro[pyrrolidine-3,6′-pyrrolo[2,3-d]pyrimidine]-2,5-dione] | 2790 | 1.08
CN1C(=O)CC2(Cc3cnc(Nc4ccc(N5CCNCC5)c(F)c4)nc3N2C2CCCC2)C1=O (stereo not drawn) [Compound C71, 7′-cyclopentyl-2′-((3-fluoro-4-(piperazin-1-yl)phenyl)amino)-1-methyl-5′,7′-dihydrospiro[pyrrolidine-3,6′-pyrrolo[2,3-d]pyrimidine]-2,5-dione] | 11700 | 4.94
CN1CCN(c2ccc(Nc3ncc4c(n3)N(C3CCCC3)C3(CC(=O)N(C)C3=O)C4)cc2F)CC1 (stereo not drawn) [Compound C72, 7′-cyclopentyl-2′-((3-fluoro-4-(4-methylpiperazin-1-yl)phenyl)amino)-1-methyl-5′,7′-dihydrospiro[pyrrolidine-3,6′-pyrrolo[2,3-d]pyrimidine]-2,5-dione] | 13900 | 2.53
CC(C)N1CCN(c2ccc(Nc3ncc4c(n3)N(C3CCCC3)C3(CC(=O)N(C)C3=O)C4)cc2F)CC1 (stereo not drawn) [Compound C73, 7′-cyclopentyl-2′-((3-fluoro-4-(4-isopropylpiperazin-1-yl)phenyl)amino)-1-methyl-5′,7′-dihydrospiro[pyrrolidine-3,6′-pyrrolo[2,3-d]pyrimidine]-2,5-dione] | 9740 | 1.94
O=C1CC2(Cc3cnc(Nc4ccc(N5CCNCC5)cn4)nc3N2C2CCCC2)C(=O)N1 (stereo not drawn) [Compound C74, 7′-cyclopentyl-2′-((5-(piperazin-1-yl)pyridin-2-yl)amino)-5′,7′-dihydrospiro[pyrrolidine-3,6′-pyrrolo[2,3-d]pyrimidine]-2,5-dione] | 84500 | 22.7

Stronger by IC50 (CDK6-CYCLIND3), values ahead:

IC50 (CDK6-CYCLIND3) [nM] | IC50 (CDK4-CYCLIND1) [µM] | SMILES
803 | 0.372 | O=C1NCCC12Cc1cnc(Nc3ccc(C4=CCNCC4)cn3)nc1N2C1CCCC1 (stereo not drawn) [Compound C56, 7′-cyclopentyl-2′-((1′,2′,3′,6′-tetrahydro-[3,4′-bipyridin]-6-yl)amino)-5′,7′-dihydrospiro[pyrrolidine-3,6′-pyrrolo[2,3-d]pyrimidin]-2-one]
793 | 0.19 | CN(C)CCOc1ccc(Nc2ncc3c(n2)N(C2CCCC2)C2(CCNC2=O)C3)cn1 (stereo not drawn) [Compound C61, 7′-cyclopentyl-2′-((6-(2-(dimethylamino)ethoxy)pyridin-3-yl)amino)-5′,7′-dihydrospiro[pyrrolidine-3,6′-pyrrolo[2,3-d]pyrimidin]-2-one]
630 | 0.142 | CN(C)CCOc1ccc(Nc2ncc3c(n2)N(C2CCCC2)C2(CCNC2=O)C3)cc1 (stereo not drawn) [Compound C59, 7′-cyclopentyl-2′-((4-(2-(dimethylamino)ethoxy)phenyl)amino)-5′,7′-dihydrospiro[pyrrolidine-3,6′-pyrrolo[2,3-d]pyrimidin]-2-one]
414 | 0.0926 | CN1CCN(c2ccc(Nc3ncc4c(n3)N(C3CCCC3)C3(CCNC3=O)C4)cn2)CC1 (stereo not drawn) [Compound C54, 7′-cyclopentyl-2′-((6-(4-methylpiperazin-1-yl)pyridin-3-yl)amino)-5′,7′-dihydrospiro[pyrrolidine-3,6′-pyrrolo[2,3-d]pyrimidin]-2-one]
346 | 0.159 | CC(C)N1CCN(c2ccc(Nc3ncc4c(n3)N(C3CCCC3)C3(CC(=O)N(C)C3=O)C4)cc2)CC1 (stereo not drawn) [Compound C70, 7′-cyclopentyl-2′-((4-(4-isopropylpiperazin-1-yl)phenyl)amino)-1-methyl-5′,7′-dihydrospiro[pyrrolidine-3,6′-pyrrolo[2,3-d]pyrimidine]-2,5-dione]
260 | 0.0658 | O=C1NCCC12Cc1cnc(Nc3ccc(N4CCNCC4)nc3)nc1N2C1CCCC1 (stereo not drawn) [Compound C53, 7′-cyclopentyl-2′-((6-(piperazin-1-yl)pyridin-3-yl)amino)-5′,7′-dihydrospiro[pyrrolidine-3,6′-pyrrolo[2,3-d]pyrimidin]-2-one]
221 | 0.053 | CC(C)N1CCN(c2ccc(Nc3ncc4c(n3)N(C3CCCC3)C3(CCNC3=O)C4)cn2)CC1 (stereo not drawn) [Compound C55, 7′-cyclopentyl-2′-((6-(4-isopropylpiperazin-1-yl)pyridin-3-yl)amino)-5′,7′-dihydrospiro[pyrrolidine-3,6′-pyrrolo[2,3-d]pyrimidin]-2-one]
175 | 0.0298 | CC(C)N1CCN(c2ccc(Nc3ncc4c(n3)N(C3CCCC3)C3(CCNC3=O)C4)cc2F)CC1 (stereo not drawn) [Compound C49, 7′-cyclopentyl-2′-((3-fluoro-4-(4-isopropylpiperazin-1-yl)phenyl)amino)-5′,7′-dihydrospiro[pyrrolidine-3,6′-pyrrolo[2,3-d]pyrimidin]-2-one]
34.8 | 0.0203 | CN1CCN(c2ccc(Nc3ncc4c(n3)N(C3CCCC3)C3(CC(=O)NC3=O)C4)nc2)CC1 (stereo not drawn) [Compound C75, 7′-cyclopentyl-2′-((5-(4-methylpiperazin-1-yl)pyridin-2-yl)amino)-5′,7′-dihydrospiro[pyrrolidine-3,6′-pyrrolo[2,3-d]pyrimidine]-2,5-dione]
